Patent US20180333538A1, “INJECTION APPARATUS” (Daicel Corporation, priority 2015, published 2018)
Read-outs that look alike come from different tables or passages of the source.

System: intradermal layer which is skin tissue of the rabbit in vivo
Conditions: 100 μl intradermal
Method: Moreover, an object of the following experimental conditions is to confirm, when an inflammatory substance is injected to the intradermal layer which is skin tissue of the rabbit in vivo, a presence or absence of an inflammatory response (formation of erythema and eschar, and formation of edema) for each elapsed time (after 24 hours, 48 hours, and 72 hours) . In addition, the injection of an injection solution with the needled injector was performed at a constant pressurization rate.
16-week-old male Std: JW/CSK rabbit, already shaved and smooth skin-verified, was used.
An aqueous solution of the following inflammatory substance was used as the dosing liquid and the injection solution.
Inflammatory substance: acetic acid, diluted to a predetermined concentration with distilled water, dose 100 μl
Definitions of numerical values representing the experimental results in the tables with respect to each of erythema and eschar formation and edema formation are as follows.
1 Very slight erythema (barely perceptible erythema)
2 Slight erythema (clearly perceptible erythema)
3 Moderate to severe erythema
4 Severe erythema to eschar formations
1 Very slight edema (barely perceptible edema)
2 Slight edema (edema with edges perceptible due to definite raising)
3 Moderate edema (raised approximately 1 mm)
4 Severe edema (raised 1 mm or more and extending beyond the area of exposure)

[1] = Comparative example (needled injector), acetic acid 0.25%, 24 h
[2] = Comparative example (needled injector), acetic acid 0.25%, 48 h
[3] = Comparative example (needled injector), acetic acid 0.25%, 72 h
[4] = Comparative example (needled injector), acetic acid 0.5%, 24 h
[5] = Comparative example (needled injector), acetic acid 0.5%, 48 h
[6] = Comparative example (needled injector), acetic acid 0.5%, 72 h
[7] = Comparative example (needled injector), acetic acid 1.0%, 24 h
[8] = Comparative example (needled injector), acetic acid 1.0%, 48 h
[9] = Comparative example (needled injector), acetic acid 1.0%, 72 h
[10] = Comparative example (needled injector), acetic acid 1.5%, 24 h
[11] = Comparative example (needled injector), acetic acid 1.5%, 48 h
[12] = Comparative example (needled injector), acetic acid 1.5%, 72 h
[13] = Comparative example (needled injector), acetic acid 2.0%, 24 h
[14] = Comparative example (needled injector), acetic acid 2.0%, 48 h
[15] = Comparative example (needled injector), acetic acid 2.0%, 72 h
[16] = Injector 1, acetic acid 0.25%, 24 h
[17] = Injector 1, acetic acid 0.25%, 48 h
[18] = Injector 1, acetic acid 0.25%, 72 h
[19] = Injector 1, acetic acid 0.5%, 24 h
[20] = Injector 1, acetic acid 0.5%, 48 h
[21] = Injector 1, acetic acid 0.5%, 72 h
[22] = Injector 1, acetic acid 1.0%, 24 h
[23] = Injector 1, acetic acid 1.0%, 48 h
[24] = Injector 1, acetic acid 1.0%, 72 h
[25] = Injector 1, acetic acid 1.5%, 24 h
[26] = Injector 1, acetic acid 1.5%, 48 h
[27] = Injector 1, acetic acid 1.5%, 72 h
[28] = Injector 1, acetic acid 2.0%, 24 h
[29] = Injector 1, acetic acid 2.0%, 48 h
[30] = Injector 1, acetic acid 2.0%, 72 h

CC(=O)O [Acetic acid, acetic acid]
Edema [1]: 0 | Erythema etc. [1]: 1 | Edema [2]: 0 | Erythema etc. [2]: 1 | Edema [3]: 0 | Erythema etc. [3]: 1 | Edema [4]: 0 | Erythema etc. [4]: 1 | Edema [5]: 0 | Erythema etc. [5]: 1 | Edema [6]: 0 | Erythema etc. [6]: 1 | Edema [7]: 1 | Erythema etc. [7]: 1 | Edema [8]: 1 | Erythema etc. [8]: 1 | Edema [9]: 1 | Erythema etc. [9]: 1 | Edema [10]: 2 | Erythema etc. [10]: 1 | Edema [11]: 2 | Erythema etc. [11]: 1 | Edema [12]: 2 | Erythema etc. [12]: 1 | Edema [13]: 3 | Erythema etc. [13]: 1 | Edema [14]: 3 | Erythema etc. [14]: 1 | Edema [15]: 2 | Erythema etc. [15]: 1 | Edema [16]: 0 | Erythema etc. [16]: 1 | Edema [17]: 0 | Erythema etc. [17]: 1 | Edema [18]: 0 | Erythema etc. [18]: 1 | Edema [19]: 0 | Erythema etc. [19]: 1 | Edema [20]: 0 | Erythema etc. [20]: 1 | Edema [21]: 0 | Erythema etc. [21]: 1 | Edema [22]: 0 | Erythema etc. [22]: 1 | Edema [23]: 0 | Erythema etc. [23]: 1 | Edema [24]: 0 | Erythema etc. [24]: 1 | Edema [25]: 0 | Erythema etc. [25]: 1 | Edema [26]: 0 | Erythema etc. [26]: 1 | Edema [27]: 0 | Erythema etc. [27]: 1 | Edema [28]: 1 | Erythema etc. [28]: 1 | Edema [29]: 1 | Erythema etc. [29]: 1 | Edema [30]: 1 | Erythema etc. [30]: 1
